Reference: article PMC6688997 (Nature Communications, 2019)
Where “and” joins values, the source holds several entries; their conditions need not be identical. Identical values can stand only once. Like-named read-outs stand apart in the source and are kept apart here.

What was measured:
MUSK = molecular target: T1, MUSK (Homo sapiens, UniProt O15146); experiment: Kinase assay, ATP Km; type: biochemical
T1 construct: purchased Carna Biosciences
T1 sequence (O15146 24-869): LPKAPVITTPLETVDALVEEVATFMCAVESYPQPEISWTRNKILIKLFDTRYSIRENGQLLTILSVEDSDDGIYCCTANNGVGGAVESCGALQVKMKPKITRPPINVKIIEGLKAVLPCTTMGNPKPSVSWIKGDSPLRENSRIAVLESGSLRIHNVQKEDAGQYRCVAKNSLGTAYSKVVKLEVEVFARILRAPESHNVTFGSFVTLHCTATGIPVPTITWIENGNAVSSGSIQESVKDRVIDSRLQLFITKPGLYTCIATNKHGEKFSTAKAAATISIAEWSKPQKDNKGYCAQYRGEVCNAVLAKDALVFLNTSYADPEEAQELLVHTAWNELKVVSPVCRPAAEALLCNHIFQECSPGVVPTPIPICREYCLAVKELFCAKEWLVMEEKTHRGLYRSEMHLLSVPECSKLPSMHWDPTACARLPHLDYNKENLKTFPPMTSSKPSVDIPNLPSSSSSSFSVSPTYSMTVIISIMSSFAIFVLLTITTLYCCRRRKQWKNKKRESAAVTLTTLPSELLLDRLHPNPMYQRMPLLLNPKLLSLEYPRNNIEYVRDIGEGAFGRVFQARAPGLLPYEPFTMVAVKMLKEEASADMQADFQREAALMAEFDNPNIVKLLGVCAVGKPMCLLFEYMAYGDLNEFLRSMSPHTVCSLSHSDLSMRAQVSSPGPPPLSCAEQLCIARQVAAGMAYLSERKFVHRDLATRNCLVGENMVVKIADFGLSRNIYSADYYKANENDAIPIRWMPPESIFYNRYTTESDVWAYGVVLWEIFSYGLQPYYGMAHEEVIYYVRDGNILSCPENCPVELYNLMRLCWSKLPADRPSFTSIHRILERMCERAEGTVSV

[1] = cited from earlier work
MAPKAPK5 = molecular target: T2, MAPKAPK5 (Homo sapiens, UniProt Q8IW41); experiment: Kinase assay, ATP Km; type: biochemical
T2 construct: purchased Carna Biosciences
T2 sequence (Q8IW41 whole entry): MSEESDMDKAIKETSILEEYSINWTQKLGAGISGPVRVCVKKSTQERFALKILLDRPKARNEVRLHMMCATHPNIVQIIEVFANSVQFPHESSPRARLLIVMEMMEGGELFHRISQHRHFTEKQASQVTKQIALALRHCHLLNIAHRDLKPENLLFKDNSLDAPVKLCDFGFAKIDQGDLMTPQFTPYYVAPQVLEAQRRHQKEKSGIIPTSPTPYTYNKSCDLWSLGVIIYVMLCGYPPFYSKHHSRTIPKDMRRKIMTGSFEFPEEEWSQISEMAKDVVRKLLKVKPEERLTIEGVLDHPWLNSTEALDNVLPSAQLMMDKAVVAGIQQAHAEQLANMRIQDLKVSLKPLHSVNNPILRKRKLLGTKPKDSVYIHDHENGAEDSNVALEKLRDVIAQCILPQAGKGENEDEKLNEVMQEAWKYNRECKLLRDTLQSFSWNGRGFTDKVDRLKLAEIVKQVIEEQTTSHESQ

AurA = AurA (Homo sapiens, UniProt O14965); experiment: Kinase assay, ATP Km; type: biochemical
SYK = SYK (Homo sapiens, UniProt P43405); experiment: Kinase assay, ATP Km; type: biochemical
PAK2 = molecular target: T3, PAK2 (Homo sapiens, UniProt Q13177); experiment: Kinase assay, ATP Km; type: biochemical
T3 construct: purchased Carna Biosciences
T3 sequence (Q13177 whole entry): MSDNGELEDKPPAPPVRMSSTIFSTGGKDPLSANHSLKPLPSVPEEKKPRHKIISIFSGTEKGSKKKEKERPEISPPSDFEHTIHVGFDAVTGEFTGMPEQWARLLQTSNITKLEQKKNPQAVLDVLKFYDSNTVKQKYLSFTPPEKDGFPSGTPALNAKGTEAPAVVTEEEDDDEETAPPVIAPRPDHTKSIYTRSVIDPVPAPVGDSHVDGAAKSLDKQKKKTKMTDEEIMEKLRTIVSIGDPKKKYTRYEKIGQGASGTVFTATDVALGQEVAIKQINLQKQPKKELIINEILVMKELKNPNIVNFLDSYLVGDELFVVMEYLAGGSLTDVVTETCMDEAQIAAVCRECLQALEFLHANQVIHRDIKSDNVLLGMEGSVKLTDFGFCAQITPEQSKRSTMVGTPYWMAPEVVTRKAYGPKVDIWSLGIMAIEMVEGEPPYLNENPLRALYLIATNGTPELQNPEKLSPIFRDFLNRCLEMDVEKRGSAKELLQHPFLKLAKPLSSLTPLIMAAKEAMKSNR

[2] = tested on: EML4-ALK WT induced Ba/F3 cells; experiment: CellTiter-Glo cell viability assay; type: cell-based, murine; conditions: 72 h, read-out: IC50
SGK = molecular target: T4, SGK (Homo sapiens, UniProt O00141); experiment: Kinase assay, ATP Km; type: biochemical
T4 construct: purchased Carna Biosciences
T4 sequence (O00141 whole entry): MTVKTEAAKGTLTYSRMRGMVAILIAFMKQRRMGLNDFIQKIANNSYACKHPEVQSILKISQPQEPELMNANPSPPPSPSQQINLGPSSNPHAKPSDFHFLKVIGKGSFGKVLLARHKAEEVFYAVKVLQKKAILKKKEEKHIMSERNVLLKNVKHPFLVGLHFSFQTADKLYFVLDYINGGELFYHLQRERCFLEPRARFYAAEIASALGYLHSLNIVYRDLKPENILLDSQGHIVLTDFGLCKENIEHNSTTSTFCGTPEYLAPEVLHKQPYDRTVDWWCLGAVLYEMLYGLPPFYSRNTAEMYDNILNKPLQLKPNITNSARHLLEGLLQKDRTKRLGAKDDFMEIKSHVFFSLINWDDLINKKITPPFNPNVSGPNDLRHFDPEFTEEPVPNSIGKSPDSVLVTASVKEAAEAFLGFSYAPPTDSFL

PKACγ = PKACγ (Homo sapiens, UniProt P22612); experiment: Kinase assay, ATP Km; type: biochemical
PKACγ, sequence (P22612 whole entry): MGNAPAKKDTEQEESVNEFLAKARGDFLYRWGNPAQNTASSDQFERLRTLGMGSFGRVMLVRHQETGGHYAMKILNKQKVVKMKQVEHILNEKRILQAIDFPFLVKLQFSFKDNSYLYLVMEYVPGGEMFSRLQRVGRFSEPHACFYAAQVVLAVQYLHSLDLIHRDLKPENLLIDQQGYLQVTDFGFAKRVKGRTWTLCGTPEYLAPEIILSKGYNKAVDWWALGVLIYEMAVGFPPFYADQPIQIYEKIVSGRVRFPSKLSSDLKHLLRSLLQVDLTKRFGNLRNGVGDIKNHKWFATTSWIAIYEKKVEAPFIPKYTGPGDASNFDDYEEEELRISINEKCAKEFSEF

p38δ = p38δ (Homo sapiens, UniProt O15264); experiment: Kinase assay, ATP Km; type: biochemical
p38δ, sequence (O15264 whole entry): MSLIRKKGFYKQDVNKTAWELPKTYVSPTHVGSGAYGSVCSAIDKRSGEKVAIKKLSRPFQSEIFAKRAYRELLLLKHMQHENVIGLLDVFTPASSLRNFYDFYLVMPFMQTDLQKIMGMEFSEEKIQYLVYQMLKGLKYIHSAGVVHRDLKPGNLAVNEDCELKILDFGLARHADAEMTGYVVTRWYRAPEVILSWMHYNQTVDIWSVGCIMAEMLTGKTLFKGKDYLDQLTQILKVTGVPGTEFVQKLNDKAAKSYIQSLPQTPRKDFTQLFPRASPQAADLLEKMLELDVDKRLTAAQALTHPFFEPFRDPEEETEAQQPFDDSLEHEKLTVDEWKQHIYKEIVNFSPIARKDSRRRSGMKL

MELK = molecular target: T5, MELK (Homo sapiens, UniProt Q14680); experiment: Kinase assay, ATP Km; type: biochemical
T5 construct: purchased Carna Biosciences
T5 sequence (Q14680 whole entry): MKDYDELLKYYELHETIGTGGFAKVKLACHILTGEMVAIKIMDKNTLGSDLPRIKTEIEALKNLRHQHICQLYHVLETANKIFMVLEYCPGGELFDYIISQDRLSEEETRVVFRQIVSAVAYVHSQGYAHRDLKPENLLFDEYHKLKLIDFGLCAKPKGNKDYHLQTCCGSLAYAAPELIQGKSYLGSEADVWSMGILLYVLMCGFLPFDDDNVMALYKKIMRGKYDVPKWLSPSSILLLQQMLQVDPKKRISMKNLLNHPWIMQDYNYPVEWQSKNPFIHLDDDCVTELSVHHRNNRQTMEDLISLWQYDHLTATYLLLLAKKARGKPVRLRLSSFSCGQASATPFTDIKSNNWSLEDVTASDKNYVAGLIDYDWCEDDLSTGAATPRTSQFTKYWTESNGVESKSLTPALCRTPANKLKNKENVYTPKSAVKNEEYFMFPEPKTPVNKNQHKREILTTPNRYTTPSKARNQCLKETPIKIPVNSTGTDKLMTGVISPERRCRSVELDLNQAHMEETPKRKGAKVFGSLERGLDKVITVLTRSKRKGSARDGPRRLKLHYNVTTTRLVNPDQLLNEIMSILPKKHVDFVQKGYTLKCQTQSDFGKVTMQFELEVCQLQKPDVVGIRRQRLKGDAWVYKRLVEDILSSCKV

DDR2 = molecular target: T6, DDR2 (Homo sapiens, UniProt Q16832); experiment: Kinase assay, 1 mM ATP; type: biochemical
T6 sequence (Q16832 22-855): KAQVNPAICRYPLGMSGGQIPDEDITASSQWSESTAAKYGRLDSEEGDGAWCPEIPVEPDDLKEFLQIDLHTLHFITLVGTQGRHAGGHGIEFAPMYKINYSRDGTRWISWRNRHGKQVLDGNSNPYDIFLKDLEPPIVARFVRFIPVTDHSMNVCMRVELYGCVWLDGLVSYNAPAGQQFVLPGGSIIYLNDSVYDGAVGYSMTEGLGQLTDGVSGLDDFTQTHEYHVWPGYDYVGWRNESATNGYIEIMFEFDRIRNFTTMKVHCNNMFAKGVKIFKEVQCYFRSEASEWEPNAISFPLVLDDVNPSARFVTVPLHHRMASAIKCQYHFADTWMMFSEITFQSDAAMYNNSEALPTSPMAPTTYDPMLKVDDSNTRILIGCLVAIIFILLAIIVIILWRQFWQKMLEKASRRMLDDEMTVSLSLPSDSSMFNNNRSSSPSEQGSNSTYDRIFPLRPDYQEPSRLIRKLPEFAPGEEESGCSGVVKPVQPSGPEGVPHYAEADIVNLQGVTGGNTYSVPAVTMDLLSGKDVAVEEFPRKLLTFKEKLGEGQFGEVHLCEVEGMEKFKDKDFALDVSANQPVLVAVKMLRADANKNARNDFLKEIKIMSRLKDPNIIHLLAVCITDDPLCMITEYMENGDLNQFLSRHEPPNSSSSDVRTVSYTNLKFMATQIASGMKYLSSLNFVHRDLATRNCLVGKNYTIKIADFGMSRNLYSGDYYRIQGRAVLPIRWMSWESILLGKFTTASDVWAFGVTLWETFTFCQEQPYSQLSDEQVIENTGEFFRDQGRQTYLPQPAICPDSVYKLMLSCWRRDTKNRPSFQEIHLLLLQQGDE

FES = FES (Homo sapiens, UniProt P07332); experiment: Kinase assay, ATP Km; type: biochemical
FES, sequence (P07332 whole entry): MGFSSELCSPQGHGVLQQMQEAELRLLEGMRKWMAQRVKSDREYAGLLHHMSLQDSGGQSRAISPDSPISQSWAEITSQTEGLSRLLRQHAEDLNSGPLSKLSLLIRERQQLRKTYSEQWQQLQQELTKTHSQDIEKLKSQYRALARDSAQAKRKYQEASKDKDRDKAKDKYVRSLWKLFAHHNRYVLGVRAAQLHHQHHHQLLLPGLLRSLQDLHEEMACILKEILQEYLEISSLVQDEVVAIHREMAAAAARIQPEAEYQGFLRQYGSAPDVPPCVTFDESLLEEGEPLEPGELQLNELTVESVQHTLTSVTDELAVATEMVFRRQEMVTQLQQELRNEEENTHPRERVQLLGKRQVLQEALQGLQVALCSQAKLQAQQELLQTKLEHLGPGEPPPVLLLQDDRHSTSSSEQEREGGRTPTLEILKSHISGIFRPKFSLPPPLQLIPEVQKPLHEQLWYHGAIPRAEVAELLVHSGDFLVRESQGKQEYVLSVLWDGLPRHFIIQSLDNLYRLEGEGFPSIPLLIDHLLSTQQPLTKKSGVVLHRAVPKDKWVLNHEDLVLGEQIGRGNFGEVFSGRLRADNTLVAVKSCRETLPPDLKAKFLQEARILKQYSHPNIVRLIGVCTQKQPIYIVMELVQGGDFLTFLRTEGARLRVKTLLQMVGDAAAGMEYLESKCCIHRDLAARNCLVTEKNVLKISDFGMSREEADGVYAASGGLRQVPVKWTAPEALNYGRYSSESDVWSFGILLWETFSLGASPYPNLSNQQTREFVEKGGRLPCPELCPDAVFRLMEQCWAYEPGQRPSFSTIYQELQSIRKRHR

FGFR3 = molecular target: T7, FGFR3 (Homo sapiens, UniProt P22607); experiment: Kinase assay, ATP Km; type: biochemical
T7 construct: purchased Carna Biosciences
T7 sequence (P22607 23-806): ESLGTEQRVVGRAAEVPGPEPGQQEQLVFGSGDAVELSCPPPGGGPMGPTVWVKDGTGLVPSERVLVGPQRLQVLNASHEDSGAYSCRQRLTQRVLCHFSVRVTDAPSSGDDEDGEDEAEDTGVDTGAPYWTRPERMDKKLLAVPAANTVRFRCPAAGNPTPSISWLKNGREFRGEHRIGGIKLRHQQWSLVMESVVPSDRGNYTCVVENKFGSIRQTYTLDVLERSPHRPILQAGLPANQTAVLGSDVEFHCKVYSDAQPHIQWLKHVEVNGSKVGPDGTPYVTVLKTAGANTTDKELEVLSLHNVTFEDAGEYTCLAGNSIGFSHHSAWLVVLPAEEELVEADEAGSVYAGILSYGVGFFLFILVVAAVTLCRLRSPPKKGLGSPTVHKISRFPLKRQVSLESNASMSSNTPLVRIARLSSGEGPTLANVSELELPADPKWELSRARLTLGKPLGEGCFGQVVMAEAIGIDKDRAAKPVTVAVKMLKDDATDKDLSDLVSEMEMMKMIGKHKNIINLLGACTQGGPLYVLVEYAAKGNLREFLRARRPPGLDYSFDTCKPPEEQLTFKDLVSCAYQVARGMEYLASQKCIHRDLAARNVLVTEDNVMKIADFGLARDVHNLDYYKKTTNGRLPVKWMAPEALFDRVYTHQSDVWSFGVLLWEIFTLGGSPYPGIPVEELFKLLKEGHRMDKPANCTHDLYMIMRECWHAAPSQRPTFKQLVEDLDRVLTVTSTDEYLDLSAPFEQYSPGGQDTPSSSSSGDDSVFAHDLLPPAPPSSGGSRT

FYN(isoform b) = FYN(isoform b) (Homo sapiens, UniProt P06241); experiment: Kinase assay, ATP Km; type: biochemical
FYN(isoform b), sequence (P06241 1-534 isoform P06241-2): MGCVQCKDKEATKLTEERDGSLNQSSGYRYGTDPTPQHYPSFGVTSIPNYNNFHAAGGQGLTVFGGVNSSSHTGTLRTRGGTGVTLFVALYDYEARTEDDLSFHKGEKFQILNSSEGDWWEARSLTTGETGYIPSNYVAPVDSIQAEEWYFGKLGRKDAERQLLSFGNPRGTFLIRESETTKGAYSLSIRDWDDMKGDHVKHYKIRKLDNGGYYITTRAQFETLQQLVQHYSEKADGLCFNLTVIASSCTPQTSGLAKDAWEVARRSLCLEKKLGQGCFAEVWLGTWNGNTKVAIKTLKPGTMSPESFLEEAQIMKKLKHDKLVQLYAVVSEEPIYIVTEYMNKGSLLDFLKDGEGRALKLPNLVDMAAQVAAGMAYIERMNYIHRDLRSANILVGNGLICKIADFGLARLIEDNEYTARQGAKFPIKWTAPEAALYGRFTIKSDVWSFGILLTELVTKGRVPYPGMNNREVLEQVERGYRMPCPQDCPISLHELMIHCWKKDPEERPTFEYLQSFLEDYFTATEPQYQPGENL

[3] = tested on: Ba/F3-CD74-ROS1 cells (WT); experiment: CellTiter-Glo cell viability assay; type: cell-based, murine; conditions: for IC50: 72 h
TSSK3 = molecular target: T8, TSSK3 (Homo sapiens, UniProt Q96PN8); experiment: Kinase assay, ATP Km; type: biochemical
T8 construct: purchased Carna Biosciences

[4] = tested on: Ba/F3-TPM3-NTRK1 cells (WT); experiment: CellTiter-Glo cell viability assay; type: cell-based, murine; conditions: 72 h, read-out: IC50

C[C@@H](N)COc1ccc(-c2cnc3ccc(N[C@H](C)c4cccc(F)c4)nn23)cc1.O=C(O)CCCCC(=O)O [DS-6051b]
inhibition at 0.04 µM (MUSK): 96.7%
% Inhibition (MUSK; 0.04μM, ATP Km): potently inhibited
Mean trough plasma concentration ([1]; 400 mg dosing): ~ 320 ng/mL and ~800 nM
Peak plasma concentration ([1]; 600 mg dosing in human): around 1650 nM
Mean trough plasma concentration ([1]; 600 mg dosing): ~480 ng/mL and ~1200 nM
inhibition at 0.04 µM (MAPKAPK5): -0.7%
inhibition at 0.04 µM (AurA): 8.5%
inhibition at 0.04 µM (SYK): 0.327%
inhibition at 0.04 µM (PAK2): 4.9%
IC50 [2]: ~50 nM
IC50 ([2]; Mus musculus, BaF3, 72 h): 46.6 nM
inhibition at 0.04 µM (SGK): 2.7%
inhibition at 0.04 µM (PKACγ): -1.9%
inhibition at 0.04 µM (p38δ): 6.2%
inhibition at 0.04 µM (MELK): -2.2%
inhibition at 0.2 µM (DDR2; 0.2μM, 1 mM ATP): 43.5%
IC50 (DDR2; ATP: 1 mM): 299 nM
inhibition at 0.04 µM (FES): 41.2%
inhibition at 0.04 µM (FGFR3): 26.4%
inhibition at 0.04 µM (FYN(isoform b)): 49.2%
IC50 [3]: lower IC50 than crizotinib
IC50 ([3]; Mus musculus, read-out: IC50): 0.8 nM
GI50 ([3]; Mus musculus, source data sheet): 0.7 nM
inhibition at 0.04 µM (TSSK3): 3.2%
IC50 [4]: 2.97 nM and 3 to 20 nM
IC50 ([4]; Mus musculus): 1.88 nM
